One block for each compound: values may come before it.
What was measured:
HeLa = experiment: In vitro antiproliferative activity against HeLa S3 cells.; assay type: functional, cell-based; conditions: Homo sapiens
Mus musculus [1] = experiment: In vivo antitumor activity against lymphocytic leukemia P388 in mice expressed as maximal increase in life span at an optimal dose of 8 mg/kg.; assay type: functional
Mus musculus [2] = experiment: In vivo antitumor activity against murine sarcoma 180 cells at an optimal dose of 8 mg/kg.; assay type: functional
Mus musculus [3] = experiment: In vivo antitumor activity against murine sarcoma 180 cells at an optimal dose of 16 mg/kg.; assay type: functional
Mus musculus [4] = experiment: In vivo antitumor activity against murine sarcoma 180 cells at an optimal dose of 4 mg/kg.; assay type: functional
Mus musculus [5] = experiment: In vivo antitumor activity against lymphocytic leukemia P388 in mice expressed as maximal increase in life span at an optimal dose of 4 mg/kg.; assay type: functional
Mus musculus [6] = experiment: Antitumor activity against human HCT116 tumor cells, at a dose of 8 mg/kg upon i.v. administration in nude mice; assay type: functional; conditions: route intravenous
Mus musculus [7] = experiment: Antitumor activity against human Lu-65 tumor cells, at a dose of 8 mg/kg upon i.v. administration in nude mice; assay type: functional; conditions: route intravenous
Mus musculus [8] = experiment: Antitumor activity against human A-2780 tumor cells, at a dose of 8 mg/kg upon i.v. administration in nude mice; assay type: functional; conditions: route intravenous
Mus musculus [9] = experiment: In vivo antitumor activity against lymphocytic leukemia P388 in mice expressed as maximal increase in life span at an optimal dose of 16 mg/kg.; assay type: functional
Mus musculus [10] = experiment: In vivo antitumor activity against murine sarcoma 180 cells at an optimal dose of 2 mg/kg.; assay type: functional
Mus musculus [11] = experiment: In vivo antitumor activity against lymphocytic leukemia P388 in mice expressed as maximal increase in life span at an optimal dose of 1 mg/kg.; assay type: functional

Structure (SMILES): C/C1=C\[C@@H](OC(=O)CNC(=O)CNC(=O)c2ccccc2)C(=O)/C=C/C=C\c2csc(n2)[C@H](C)NC(=O)C[C@@]2(CC1)[S+]([O-])SC(=O)[C@]2(C)O (stereo partly specified)
- IC50 (HeLa): 8.7 nM
- ILS at 8 mg/kg (Mus musculus [1]): 78%
- T/C (Mus musculus [2]): 0.42

- IC50 (HeLa): 240 nM
Structure (SMILES): COCCOCCOCCOCCOCC(=O)O[C@@H]1/C=C(\C)CC[C@]2(CC(=O)N[C@@H](C)c3nc(cs3)/C=C\C=C\C1=O)[S+]([O-])SC(=O)[C@]2(C)O (stereo partly specified)
- T/C (Mus musculus [2]): 0.51

Structure (SMILES): COCCOCC(=O)OCCOCCOCC(=O)O[C@@H]1/C=C(\C)CC[C@]2(CC(=O)N[C@@H](C)c3nc(cs3)/C=C\C=C\C1=O)[S+]([O-])SC(=O)[C@]2(C)O (stereo partly specified)
- T/C (Mus musculus [2]): 0.12

Structure (SMILES): C/C1=C\[C@@H](OC(=O)CNC(=O)[C@@H](C)NC(=O)OCc2ccccc2)C(=O)/C=C/C=C\c2csc(n2)[C@H](C)NC(=O)C[C@@]2(CC1)[S+]([O-])SC(=O)[C@]2(C)O (stereo partly specified)
- IC50 (HeLa): 34 nM
- ILS at 8 mg/kg (Mus musculus [1]): 58%
- T/C (Mus musculus [3]): 0.61

- IC50 (HeLa): 66 nM
Structure (SMILES): COCCOCCOCC(=O)O[C@@H]1/C=C(\C)CC[C@]2(CC(=O)N[C@@H](C)c3nc(cs3)/C=C\C=C\C1=O)[S+]([O-])SC(=O)[C@]2(C)O (stereo partly specified)
- T/C (Mus musculus [4]): 0.3

Structure (SMILES): C/C1=C\[C@@H](OC(=O)CNC(=O)CN(C)C(=O)OCc2ccccc2)C(=O)/C=C/C=C\c2csc(n2)[C@H](C)NC(=O)C[C@@]2(CC1)[S+]([O-])SC(=O)[C@]2(C)O (stereo partly specified)
- IC50 (HeLa): 67 nM
- T/C (Mus musculus [2]): 0.61
- ILS at 4 mg/kg (Mus musculus [5]): 70%

Structure (SMILES): C/C1=C\[C@@H](OC(=O)COCCOCCOCCOCCO)C(=O)/C=C/C=C\c2csc(n2)[C@H](C)NC(=O)C[C@@]2(CC1)[S+]([O-])SC(=O)[C@]2(C)O (stereo partly specified)
- T/C (Mus musculus [2]): 0.18

Structure (SMILES): C/C1=C\[C@@H](OC(=O)[C@@H](C)NC(=O)OCc2ccccc2)C(=O)/C=C/C=C\c2csc(n2)[C@H](C)NC(=O)C[C@@]2(CC1)[S+]([O-])SC(=O)[C@]2(C)O (stereo partly specified)
- T/C (Mus musculus [4]): 0.56
- IC50 (HeLa): 45 nM
- ILS at 4 mg/kg (Mus musculus [5]): 52%

Structure (SMILES): C/C1=C\[C@@H](OC(=O)CNC(=O)[C@H](NC(=O)OCc2ccccc2)C(C)C)C(=O)/C=C/C=C\c2csc(n2)[C@H](C)NC(=O)C[C@@]2(CC1)[S+]([O-])SC(=O)[C@]2(C)O (stereo partly specified)
- IC50 (HeLa): 16 nM
- ILS at 8 mg/kg (Mus musculus [1]): 67%
- T/C (Mus musculus [2]): 0.56

Structure (SMILES): C/C1=C\[C@@H](OC(=O)CCNC(=O)OCc2ccccc2)C(=O)/C=C/C=C\c2csc(n2)[C@H](C)NC(=O)C[C@@]2(CC1)[S+]([O-])SC(=O)[C@]2(C)O (stereo partly specified)
- T/C (Mus musculus [4]): 0.79
- IC50 (HeLa): 40 nM
- ILS at 4 mg/kg (Mus musculus [5]): 53%

Structure (SMILES): C/C1=C\[C@@H](OC(=O)CNC(=O)CCNC(=O)OC(C)(C)C)C(=O)/C=C/C=C\c2csc(n2)[C@H](C)NC(=O)C[C@@]2(CC1)[S+]([O-])SC(=O)[C@]2(C)O (stereo partly specified)
- IC50 (HeLa): 170 nM
- ILS at 8 mg/kg (Mus musculus [1]): 67%
- T/C (Mus musculus [2]): 0.45

Structure (SMILES): C/C1=C\[C@@H](OC(=O)CNC(=O)CNC(=O)OC(C)(C)C)C(=O)/C=C/C=C\c2csc(n2)[C@H](C)NC(=O)C[C@@]2(CC1)[S+]([O-])SC(=O)[C@]2(C)O (stereo partly specified)
- T/C (Mus musculus [6]): 0.7
- IC50 (HeLa): 20 nM
- T/C (Mus musculus [7]): 0.43
- ILS at 8 mg/kg (Mus musculus [1]): 46%
- T/C (Mus musculus [8]): 0.73
- T/C (Mus musculus [2]): 0.22

Structure (SMILES): C/C1=C\[C@@H](OC(=O)CNC(=O)CCNC(=O)OCc2ccccc2)C(=O)/C=C/C=C\c2csc(n2)[C@H](C)NC(=O)C[C@@]2(CC1)[S+]([O-])SC(=O)[C@]2(C)O (stereo partly specified)
- IC50 (HeLa): 20 nM
- ILS at 16 mg/kg (Mus musculus [9]): 76%
- T/C (Mus musculus [2]): 0.55

Structure (SMILES): C/C1=C\[C@@H](OC(=O)CN(C)C(=O)OCc2ccccc2)C(=O)/C=C/C=C\c2csc(n2)[C@H](C)NC(=O)C[C@@]2(CC1)[S+]([O-])SC(=O)[C@]2(C)O (stereo partly specified)
- IC50 (HeLa): 52 nM
- T/C (Mus musculus [2]): 0.74
- ILS at 4 mg/kg (Mus musculus [5]): 48%

- IC50 (HeLa): 210 nM
Structure (SMILES): COCCOCCOCCOCCOCCOCCOCC(=O)O[C@@H]1/C=C(\C)CC[C@]2(CC(=O)N[C@@H](C)c3nc(cs3)/C=C\C=C\C1=O)[S+]([O-])SC(=O)[C@]2(C)O (stereo partly specified)

Structure (SMILES): CC(=O)NCC(=O)O[C@@H]1/C=C(\C)CC[C@]2(CC(=O)N[C@@H](C)c3nc(cs3)/C=C\C=C\C1=O)[S+]([O-])SC(=O)[C@]2(C)O (stereo partly specified)
- T/C (Mus musculus [10]): 0.67
- IC50 (HeLa): 13 nM
- ILS at 4 mg/kg (Mus musculus [5]): 66%

Structure (SMILES): C/C1=C\[C@@H](O)C(=O)/C=C/C=C\c2csc(n2)[C@H](C)NC(=O)C[C@@]2(CC1)[S+]([O-])SC(=O)[C@]2(C)O (stereo partly specified)
- T/C (Mus musculus [10]): 0.44
- IC50 (HeLa): 28 nM
- ILS at 1 mg/kg (Mus musculus [11]): 64%
